Assay results as given in EP2030621A1, “Novel substituted pyrimidines as cysteine protease inhibitors” (GLAXO GROUP LIMITED, priority 2007, dated 2009).
Where a name gives a salt, the structure may show the parent alone.

Each molecule was assayed on Plasmodium falciparum parasite (assay: Whole cell assay: whole cell activity against the parasite). Settings: Plasmodium falciparum.
Format: cell-based
Source text: Compounds can be evaluated for whole cell actvity against the Plasmadium falciparum parasite according to the procedure described in Sijwali S. and Rosenthal P. J., (2004) Proceedings of the National Academy of Sciences of the United States of America (PNAS) 101(13), 4384-4389 (see in particular "Measurement of Parasite Growth rates and Inhibitor Sensitivity" on page 4385); IC50 values can be calculated as described in Singh A. and Rosenthal P. J., (2001) Antimicrobial Agents and Chemotherapy 45(3), 949-951 (see in particular page 950, first column); synchronised parasites can be prepared as described in Divo A. A. et al., (1985) Protozool. 32, 59-64. 3) In vitro models to evaluate activity against bone metastasis

Row | Structure (SMILES) | IC50 [nM]
1 | CN1CCN(C2CCN(Cc3ccc(C(=O)NN(c4nc(C#N)ncc4Br)C4CCCC4)cc3)CC2)CC1 [Example 10, N'-(5-bromo-2-cyano-4-pyrimidinyl)-N'-cyclopentyl-4-{[4-(4-methyl-1-piperazinyl)-piperidinyl]methyl}benzohydrazide trifluoroacetate] | 2.5 to 15
2 | CC1CCC(N(NC(=O)c2ccc(CN3CCN(CC4CCN(C)CC4)CC3)cc2)c2nc(C#N)ncc2Br)C1 (mixture of isomers) [Example 5, N'-(5-bromo-2-cyano-4-pyrimidinyl)-N'-(3-methylcyclopentyl)-4-({4-[(1-methyl-4-piperidinyl)methyl]-1-piperazinyl}methyl)benzohydrazide trifluoroacetate] | 2.5 to 15
3 | CN1CCN(C(=O)C2CCN(Cc3ccc(C(=O)NN(c4nc(C#N)ncc4Br)C4CCCC4)cc3)CC2)CC1 [Example 9, N'-(5-bromo-2-cyano-4-pyrimidinyl)-N'-cyclopentyl-4-({4-[(4-methyl-1-piperazinyl)carbonyl]-1-piperidinyl}methyl)benzohydrazide trifluoroacetate] | 2.5 to 15
4 | N#Cc1ncc(Br)c(N(NC(=O)c2ccc(CN3CC(N4CCCC4)C3)cc2)C2CCOCC2)n1 [Example 33, N'-(5-bromo-2-cyano-4-pyrimidinyl)-4-{[3-(1-pyrrolidinyl)-1-azetidinyl]methyl}-N'-(tetrahydro-2H-pyran-4-yl)benzohydrazide trifluoroacetate] | 15 to 150
5 | CN1CCN(C(=O)C2CCN(Cc3cccc(C(=O)NN(c4nc(C#N)ncc4Br)C4CCCCC4)c3)CC2)CC1 [Example 23, N'-(5-bromo-2-cyano-4-pyrimidinyl)-N'-cyclohexyl-3-[{4-[(4-methyl-1-piperazinyl)carbonyl]-1-piperidinyl}methyl)benzohydrazide trifluoroacetate] | 2.5 to 15
6 | CN1CCCC(CN2CCN(Cc3cccc(C(=O)NN(c4nc(C#N)ncc4Br)C4CCCC4)c3)CC2)C1 (stereo not shown) [Example 14, N'-(5-bromo-2-cyano-4-pyrimidinyl)-N'-cyclopentyl-3-({4-[(1-methyl-3-piperidinyl)methyl]-1-piperazinyl}methyl)benzohydrazide trifluoroacetate] | 2.5 to 15
7 | C[C@H]1CCC[C@H]1N(NC(=O)c1ccc(CN2CCN(C)CC2)cc1)c1nc(C#N)ncc1Br (racemic) [Example 2, N'-(5-bromo-2-cyano-4-pyrimidinyl)-N'-[(1R,2S+1S,2R)-2-methylcyclopentyl]-4-[(4-methyl-1-piperazinyl)methyl]benzohydrazide trifluoroacetate] | 15 to 150
8 | CN1CCN(C(=O)C2CCN(Cc3ccc(C(=O)NN(c4nc(C#N)ncc4Br)C4CCCCC4)cc3)CC2)CC1 [Example 22, N'-(5-bromo-2-cyano-4-pyrimidinyl)-N'-cyclohexyl-4-({4-[(4-methyl-1-piperazinyl)carbonyl]-1-piperidinyl}methyl)benzohydrazide trifluoroacetate] | 2.5 to 15
9 | CN1CCN(C2CCN(Cc3ccc(C(=O)NN(c4nc(C#N)ncc4Cl)C4CCOCC4)cc3)CC2)CC1 [Example 34, N'-(5-Chloro-2-cyano-4-pyrimidinyl)-4-{[4-(4-methyl-1-piperazinyl)-1-piperidinyl]methyl}-N'-(tetrahydro-2H-pyran-4-yl)benzohydrazide trifluoroacetate] | 2.5 to 15
10 | N#Cc1ncc(Br)c(N(NC(=O)c2cccc(CN3CCC(N4CCOCC4)CC3)c2)C2CCCCC2)n1 [Example 24, N'-(5-bromo-2-cyano-4-pyrimidinyl)-N'-cyclohexyl-3-{[4-(4-morpholinyl)-1-piperidinyl]methyl}benzohydrazide trifluoroacetate] | 2.5 to 15
11 | CN1CCN(Cc2ccc(-c3ccc(C(=O)NN(c4nc(C#N)ncc4Br)C4CCCCC4)cn3)cc2)CC1 [Example 44, N'-(5-bromo-2-cyano-4-pyrimidinyl)-N'-cyclohexyl-6-{4-[(4-methyl-1-piperazinyl)methyl]phenyl}-3-pyridinecarbohydrazide trifluoroacetate] | 15 to 150
12 | CN1CCN(C2CCN(Cc3cccc(C(=O)NN(c4nc(C#N)ncc4Br)C4CCCCC4)c3)CC2)CC1 [Example 20, N'-(5-bromo-2-cyano-4-pyrimidinyl)-N'-cyclohexyl-3-{[4-(4-methyl-1-piperazinyl)-1-piperidinyl]methyl}benzohydrazide trifluoroacetate] | 2.5 to 15
13 | N#Cc1ncc(Br)c(N(NC(=O)c2cccc(CN3CCC(N4CCOCC4)CC3)c2)C2CCCC2)n1 [Example 13, N'-(5-bromo-2-cyano-4-pyrimidinyl)-N'-cyclopentyl-3-{[4-(4-morpholinyl)-1-piperidinyl]methyl}benzohydrazide trifluoroacetate] | 15 to 150

Second part, the molecule after the results:

Row | IC50 [nM] | Structure (SMILES)
14 | 15 to 150 | CN1CCN(c2cccc(C(=O)NN(c3nc(C#N)ncc3Cl)C3CCCC3)n2)CC1 [Example 78, N'-(5-chloro-2-cyano-4-pyrimidinyl)-N'-cyclopentyl-6-(4-methyl-1-piperazinyl)-2-pyridinecarbohydrazide trifluoroacetate]
15 | 15 to 150 | CN1CCN(Cc2ccc(C(=O)NN(c3nc(C#N)ncc3Cl)C3CCCCC3)cc2)CC1 [Example 51, N'-(5-chloro-2-cyano-4-pyrimidinyl)-N'-cyclohexyl-4-[(4-methyl-1-piperazinyl)methyl]benzohydrazide trifluoroacetate]
16 | 15 to 150 | CN1CCN(C2CCN(Cc3ccc(C(=O)NN(c4nc(C#N)ncc4Br)C4CCN(C(=O)OCc5ccccc5)CC4)cc3)CC2)CC1 [Example 48, Phenylmethyl 4-{1-(5-bromo-2-cyano-4-pyrimidinyl)-2-[(4-{[4-(4-methyl-1-piperazinyl)-1-piperidinyl]methyl}phenyl)carbonyl]hydrazino}-1-piperidinecarboxylate triflouroacetate]
17 | 15 to 150 | CN(CCCc1ccccc1)Cc1ccc(C(=O)NN(c2nc(C#N)ncc2Cl)C2CCCC2)cc1 [Example 64, N'-(5-chloro-2-cyano-4-pyrimidinyl)-N'-cyclopentyl-4-{[methyl(3-phenylpropyl)amino]methyl}benzohydrazide trifluoroacetate]
18 | 2.5 to 15 | CN1CCN(Cc2ccc(-c3ccc(C(=O)NN(c4nc(C#N)ncc4Br)C4CCCC4)cn3)cc2)CC1 [Example 46, N'-(5-bromo-2-cyano-4-pyrimidinyl)-N'-cyclopentyl-6-{4-[(4-methyl-1-piperazinyl)methyl]phenyl}-3-pyridinecarbohydrazide trifluoroacetate]
19 | 15 to 150 | CC(=O)N1CCC(N(NC(=O)c2ccc(CN3CCC(C(=O)N4CCN(C)CC4)CC3)cc2)c2nc(C#N)ncc2Br)CC1 [Example 49, N'-(1-acetyl-4-piperidinyl)-N'-(5-bromo-2-cyano-4-pyrimidinyl)-4-({4-[(4-methyl-1-piperazinyl)carbonyl]-1-piperidinyl}methyl)benzohydrazide trifluoroacetate]
20 | 15 to 150 | CCN(C)Cc1ccc(C(=O)NN(c2nc(C#N)ncc2Cl)C2CCCC2)cc1 [Example 74, N'-(5-chloro-2-cyano-4-pyrimidinyl)-N'-cyclopentyl-4-{[ethyl(methyl)amino]methyl}benzohydrazide trifluoroacetate]
21 | 15 to 150 | CCN(CC)Cc1ccc(C(=O)NN(c2nc(C#N)ncc2Cl)C2CCCC2)cc1 [Example 66, N'-(5-chloro-2-cyano-4-pyrimidinyl)-N'-cyclopentyl-4-[(diethylamino)methyl]benzohydrazide trifluoroacetate]
22 | 15 to 150 | CN(Cc1ccc(C(=O)NN(c2nc(C#N)ncc2Cl)C2CCCC2)cc1)CC(O)CO (stereo not shown) [Example 76, N'-(5-chloro-2-cyano-4-pyrimidinyl)-N'-cyclopentyl-4-{[(2,3-dihydroxypropyl)(methyl)amino]methyl}benzohydrazide trifluoroacetate]
23 | 15 to 150 | CN(CCc1ccccc1)Cc1ccc(C(=O)NN(c2nc(C#N)ncc2Cl)C2CCCC2)cc1 [Example 62, N'-(5-chloro-2-cyano-4-pyrimidinyl)-N'-cyclopentyl-4-{[methyl(2-phenylethyl)amino]methyl}benzohydrazide trifluoroacetate]
24 | 15 to 150 | CCCN1CCN(c2ccc(C(=O)NN(c3nc(C#N)ncc3Br)C3CCCCC3)cc2)CC1 [Example 80, N'-(5-bromo-2-cyano-4-pyrimidinyl)-N'-cyclohexyl-4-(4-propyl-1-piperazinyl)benzohydrazide trifluoroacetate]
25 | 15 to 150 | CN(Cc1ccc(C(=O)NN(c2nc(C#N)ncc2Cl)C2CCCC2)cc1)C(C)(C)Cc1ccccc1 [Example 71, N'-(5-chloro-2-cyano-4-pyrimidinyl)-N'-cyclopentyl-4-{[(1,1-dimethyl-2-phenylethyl)(methyl)amino]methyl}benzohydrazide trifluoroacetate]
26 | 15 to 150 | CN(Cc1ccc(C(=O)NN(c2nc(C#N)ncc2Cl)C2CCCC2)cc1)C1CCC2(CC1)OCC(C)(C)CO2 [Example 65, N'-(5-chloro-2-cyano-4-pyrimidinyl)-N'-cyclopentyl-4-{[(3,3-dimethyl-1,5-dioxaspiro[5.5]undec-9-yl)(methyl)amino]methyl}benzohydrazide trifluoroacetate]
27 | > 400 | CN1CCN(Cc2ccc(C(=O)NN(CC(C)(C)C)c3nc(C#N)ncc3Br)cc2)CC1 [comparative Example 39, N'-(5-bromo-2-cyano-4-pyrimidinyl)-N'-(2,2-dimethylpropyl)-4-[(4-methyl-1-piperazinyl)methyl]benzohydrazide trifluoroacetate, reference compound]

Same assay, conditions: dihydrochloride

Row | Structure (SMILES) | IC50 [nM]
28 | CN1CCN(C2CCN(Cc3ccc(C(=O)NN(c4nc(C#N)ncc4Cl)C4CCCCC4)cc3)CC2)CC1 [Example 41, N'-(5-chloro-2-cyano-4-pyrimidinyl)-N'-cyclohexyl-4-{[4-(4-methyl-1-piperazinyl)-1-piperidinyl]methyl}benzohydrazide dihydrochloride] | 1 to 2.5
